We go through 23 compounds from PubChem BioAssay AID651554 (The Scripps Research Institute Molecular Screening Center, 2012).

The assay addresses Melanocortin receptor 4 (Homo sapiens) (UniProt P32245). Briefly: MC4R antagonists of Melanotan II cAMP, late-stage follow-up, cell-based, FRET, biased ligands (AID 651554). As to conditions: U2OS MC4R, Melanotan II cAMP TR-FRET antagonist. (Time-resolved FRET reads energy transfer from a long-lived donor to a nearby acceptor.)

Active and inactive are the calls of the source.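 Rule for the calls: active = either panel giving IC50 at or below 10 µM; inactive = both panels giving IC50 over 10 µM.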 Where only a bound is given, the exact number is not on record here.

Sequence of Melanocortin receptor 4 (Homo sapiens) (P32245 whole entry, looked up): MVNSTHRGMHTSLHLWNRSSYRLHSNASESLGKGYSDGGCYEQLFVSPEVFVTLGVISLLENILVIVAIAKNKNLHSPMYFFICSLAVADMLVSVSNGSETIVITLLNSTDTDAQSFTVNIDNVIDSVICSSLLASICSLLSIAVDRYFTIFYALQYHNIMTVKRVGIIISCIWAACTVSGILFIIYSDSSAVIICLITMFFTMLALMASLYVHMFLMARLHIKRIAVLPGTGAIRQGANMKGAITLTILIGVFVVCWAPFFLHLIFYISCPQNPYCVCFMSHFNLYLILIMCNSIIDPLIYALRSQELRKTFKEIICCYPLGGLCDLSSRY

The IC50 is the concentration needed to halve the response being measured. Consider `CCC1CCCCN1S(=O)(=O)c1ccc(NC(=O)c2ccnc(S(C)(=O)=O)n2)cc1` (stereo not given), for which the IC50 result (run 2) is “inactive”.

As for `COc1ccc(N(C(=O)c2ccco2)C(C(=O)NC2CCCC2)c2cccs2)cc1OC` (stereo not given), the IC50 (run 2) is > 50 µM (inactive).

`CCC1CCCCN1S(=O)(=O)c1ccc(NC(=O)c2ccnc(S(C)=O)n2)cc1` (stereo not given): the IC50 (run 2) is > 50 µM (inactive).

Turning to `CCC1CCCCN1S(=O)(=O)c1ccc(NC(=O)c2ccnc(SC)n2)cc1` (stereo not given), the IC50 (run 1) is > 50 µM (inactive).

Regarding `CCC1CCCCN1S(=O)(=O)c1ccc(NC(=O)c2nc(S(C)(=O)=O)ncc2Br)cc1` (stereo not given), the IC50 (run 2) is > 50 µM (inactive).

With `CCC1CCCCN1S(=O)(=O)c1ccc(NC(=O)c2ccccc2)cc1` (stereo not given), the IC50 is, setting by setting: (run 1) > 50 µM (inactive); (run 2) > 50 µM (inactive).

As for `N#CC1c2ccccc2-n2nncc2CN1C(=O)c1ccccc1` (stereo not given), the IC50 (run 2) is > 50 µM (inactive).

`O=C(NC1CCCC1)C(Nc1ccccc1)c1cccs1` (stereo not given): the IC50 (run 2) is > 50 µM (inactive).

On to `C#CC(=O)N(c1ccc(OC)c(OC)c1)C(C(=O)NC1CCCC1)c1cccs1` (stereo not given), for which the IC50 (run 1) is > 50 µM (inactive).

With `CNC(=O)c1cc(Oc2ccc(NCC(=O)Nc3ccc(Cl)c(C(F)(F)F)c3)cc2)ccn1`, where the note is “run 1”, the IC50 was > 50 µM (inactive).

For `Cc1ccc(CN2Cc3cnnn3-c3ccccc3C2C#N)c(C)c1` (stereo not given), the IC50 (run 2) was > 50 µM (inactive).

Regarding `COc1ccc(N(C(C)=O)C(C(=O)NC2CCCC2)c2cccs2)cc1OC` (stereo not given), the IC50 (run 1) is > 50 µM (inactive).

`Cc1ccccc1CN1Cc2cnnn2-c2ccccc2C1C#N` (stereo not given): the IC50 (run 1) is > 50 µM (inactive).

For `CCC1CCCCN1S(=O)(=O)c1ccc(NC(=O)c2cccc(S(C)(=O)=O)c2)cc1` (stereo not given), where the note is “run 1”, the IC50 was > 50 µM (inactive).

For `CC(=O)N(c1ccccc1)C(C(=O)NC1CCCC1)c1cccs1` (stereo not given), the IC50 (run 2) is > 50 µM (inactive).

On to `CC(=O)c1ccc(Nc2nc3ccc(C(=O)N(CCC(C)C)CCC(C)C)cc3n2CCCN2CCCCC2)cc1`, for which the IC50 runs as follows: (run 1) 0.0174 µM; (run 2) 0.0365 µM.

As to `COc1ccc(N(C(=O)Cc2cccs2)C(C(=O)NC2CCCC2)c2cccs2)cc1OC` (stereo not given), the IC50 (run 2) was > 50 µM (inactive).

In the case of `Cc1ccc(CN2Cc3ccccc3-n3nncc3C2)c(C)c1`, the IC50 (run 2) was > 50 µM (inactive).

For the compound `CC1CCCCN1S(=O)(=O)c1ccc(NC(=O)c2nc(S(C)(=O)=O)ncc2Cl)cc1` (stereo not given), where the note is “run 1”, the IC50 entry is “inactive”.

With `Cc1ccccc1CN1Cc2ccccc2-n2nncc2C1`, the IC50 (run 2) was > 50 µM (inactive).

As for `CNC(=O)c1cc(Oc2ccc(NC(=O)Nc3ccc(Cl)c(C(F)(F)F)c3)cc2)ccn1`, the IC50 result (run 1) was “inactive”.

On to `COc1ccccc1C1(CCNC(C)c2cccs2)CCOC(C(C)C)C1` (stereo not given), for which, where the note is “run 1”, the IC50 was 8.15 µM.

Take `CNC(=O)c1cc(Oc2ccc(NC(=O)CNc3ccc(Cl)c(C(F)(F)F)c3)cc2)ccn1`: the IC50 (run 1) is > 50 µM (inactive).
